Reference: PMC10447463, “Data-mining unveils structure–property–activity correlation of viral infectivity enhancing self-assembling peptides” (Nature Communications, 2023)
Read-outs that look alike come from different tables or passages of the source.

Columns and labels:
[1] = test system: HIV-1 infection of TZM-bl cells; assay: HIV-1 infectivity enhancement assay, β-galactosidase luminescence; format: cell-based; conditions: for Rel-EFC / Log10 Infection Rel EFC: 1.3 µM peptide; for Rel-EFC: infection relative to EF-C (QCKIKQIINMWQ = 1); for Log10 Infection Rel EFC: log10 of infection relative to EF-C; for Log Infectivity: Log10 infection relative to EF-C, asymmetric std dev errors; for Log10 Infection Rel EF-C: HIV-1 infection of TZM-bl cells; for Log10 of Rel to EFC (Feb2021): Log10 of infection relative to EF-C, all peptides of FigS16; for Abs. Inf.: β-galactosidase luminescence
[2] = format: physicochemical; design: key to Fibril / Fibril Formation / TEM 2cat / Fibril: 1 = fibrils present; 0 non-fibrillar structures; conditions: for Fibril / Fibril Formation: 1 mg/mL, uranyl acetate stain, qualitative
[3] = Turbidity, derived count rate of scattered light; format: physicochemical; conditions: for Count Rate / kcps: derived count rate of scattered light at 633 nm, 173°, from zeta-potential measurement, 0.1 mg/mL in 1 mM KCl after 1 d at 1 mg/mL in PBS, turbidity / microscopic aggregation, mean of triplicate
Summary of the method: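 Samples: 1 mg/mL in PBS pH 7.4 (from DMSO), 1 d at RT, then diluted in 1 mM KCl immediately before measurement. Triplicates, two independent runs averaged.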

[4] = Fig. S7 panel A (plotted against β-sheet content), TZM-bl cells
[5] = Log10 of infection rate relative to EF-C, Figure 3A source data
[6] = infection rate relative to EF-C, log10, data of Figure 2D
[7] = infection rate relative to EF-C, log10, source data of Figure 2C
[8] = absolute HIV-1 infection signal, TZM-bl cells
[9] = Fig S10 panel D, fibril category by TEM
[10] = TEM, 1 = fibrils present, 0 = non-fibrillar
[11] = TEM, 1 = fibrils present, 0 = non-fibrillar structures
[12] = category: fibrils present or non-fibrillar
[13] = Log10 of derived count rate of scattered light (turbidity)
[14] = log10 of derived count rate of scattered light (turbidity)
[15] = turbidity, Log10 of derived count rate of scattered light, Figure 3A source data
[16] = Fig. S7 panel B (plotted against CR), rounded to two decimals, TZM-bl cells
[17] = logarithm of count rate in kcps
[18] = FigS12 panel A, fibril category by TEM

Substance: CKIKIQINMW
- Rel-EFC [1]: 1,29
- Log10 Infection Rel EFC [1]: 0,11
- Log Infectivity [1, 4]: 0.1122
- Log10 Infection Rel EF-C [1, 5]: 0.11
- Log10 Infection Rel EF-C [1, 6]: 0.1122
- Log10 Infection Rel EF-C [1, 7]: 0.1122
- Log10 of Rel to EFC (Feb2021) [1]: 0.11
- Abs. Inf. [1, 8]: 7253
- TEM 2cat [2, 9]: 1
- Fibril / Fibril Formation ([2]; TEM): 1
- Fibril [2, 10]: 1
- Fibril [2, 11]: 1
- TEM 2cat [2, 12]: 1
- Log10 Count Rate [3, 13]: 3.692
- Count Rate / kcps [3]: 4915 kcps
- Log10 Count Rate [3, 14]: 3.692
- Log10 Count Rate [3, 15]: 3.692

Substance: CKIKIQINM
- Rel-EFC [1]: 1,59
- Log10 Infection Rel EFC [1]: 0,2
- Log Infectivity [1, 4]: 0.2012
- Log Infectivity [1, 16]: 0.2
- Log10 Infection Rel EF-C [1, 5]: 0.2
- Log10 Infection Rel EF-C [1, 6]: 0.2012
- Log10 Infection Rel EF-C [1, 7]: 0.2012
- Log10 of Rel to EFC (Feb2021) [1]: 0.2
- TEM 2cat [2, 9]: 1
- Fibril ([2]; Fig S10 panel E): 1
- Fibril / Fibril Formation ([2]; TEM): 1
- Fibril [2, 10]: 1
- Fibril [2, 11]: 1
- TEM 2cat [2, 12]: 1
- Log10 Count Rate [3, 13]: 3.626
- Count Rate / kcps [3]: 4228 kcps
- Log10 Count Rate [3, 14]: 3.626
- Log10 Count Rate [3, 15]: 3.626

Substance: CKFKFQFW
- Rel-EFC [1]: 0,88
- Log10 Infection Rel EFC [1]: -0,06
- Log Infectivity [1, 4]: -0.05512
- Log Infectivity [1, 16]: -0.06
- Log10 Infection Rel EF-C [1, 5]: -0.06
- Log10 Infection Rel EF-C [1, 6]: -0.05512
- Log10 Infection Rel EF-C [1, 7]: -0.05512
- Log10 of Rel to EFC (Feb2021) [1]: -0.06
- Abs. Inf. [1, 8]: 17862.22222
- TEM 2cat [2, 9]: 1
- Fibril ([2]; Fig S10 panel E): 1
- Fibril / Fibril Formation ([2]; TEM): 1
- Fibril [2, 10]: 1
- Fibril [2, 11]: 1
- TEM 2cat [2, 12]: 1
- Log10 Count Rate [3, 13]: 4.466
- Count Rate / kcps [3]: 29211 kcps
- Log10 Count Rate [3, 14]: 4.466
- Log10 Count Rate [3, 17]: 4.466
- Log10 Count Rate [3, 15]: 4.466

Substance: ILKNLSRSRKIKIQIC
- Rel-EFC [1]: 0,34
- Log10 Infection Rel EFC [1]: -0,47
- Log Infectivity [1, 4]: -0.4741
- Log10 Infection Rel EF-C [1, 5]: -0.47
- Log10 Infection Rel EF-C [1, 6]: -0.4741
- Log10 Infection Rel EF-C [1, 7]: -0.4741
- Log10 of Rel to EFC (Feb2021) [1]: -0.47
- TEM 2cat [2, 9]: 1
- Fibril / Fibril Formation ([2]; TEM): 1
- Fibril [2, 10]: 1
- Fibril [2, 11]: 1
- TEM 2cat [2, 12]: 1
- Log10 Count Rate [3, 13]: 3.379
- Count Rate / kcps [3]: 2392 kcps
- Log10 Count Rate [3, 14]: 3.379
- Log10 Count Rate [3, 15]: 3.379

Substance: ILKNLSRSRKIKIQINMWQ
- Rel-EFC [1]: 0,32
- Log10 Infection Rel EFC [1]: -0,49
- Log Infectivity [1, 4]: -0.4939
- Log10 Infection Rel EF-C [1, 5]: -0.49
- Log10 Infection Rel EF-C [1, 6]: -0.4939
- Log10 Infection Rel EF-C [1, 7]: -0.4939
- Log10 of Rel to EFC (Feb2021) [1]: -0.49
- Abs. Inf. [1, 8]: 1797
- TEM 2cat [2, 9]: 1
- Fibril / Fibril Formation ([2]; TEM): 1
- Fibril [2, 10]: 1
- Fibril [2, 11]: 1
- TEM 2cat [2, 12]: 1
- Log10 Count Rate [3, 13]: 2.486
- Count Rate / kcps [3]: 307 kcps
- Log10 Count Rate [3, 14]: 2.486
- Log10 Count Rate [3, 15]: 2.486

Substance: RGDKIKIQINMC
- Rel-EFC [1]: 1,07
- Log10 Infection Rel EFC [1]: 0,03
- Log Infectivity [1, 16]: 0.03
- Log10 Infection Rel EF-C [1, 5]: 0.03
- Log10 Infection Rel EF-C [1, 6]: 0.02911
- Log10 Infection Rel EF-C [1, 7]: 0.02911
- Log10 of Rel to EFC (Feb2021) [1]: 0.03
- Fibril / Fibril Formation ([2]; TEM): 1
- Fibril [2, 10]: 1
- Fibril [2, 11]: 1
- TEM 2cat [2, 12]: 1
- Log10 Count Rate [3, 13]: 3.147
- Count Rate / kcps [3]: 1404 kcps
- Log10 Count Rate [3, 14]: 3.147
- Log10 Count Rate [3, 15]: 3.147

Substance: KIKQII
- Rel-EFC [1]: 0
- Log10 Infection Rel EFC [1]: -2,31
- Log Infectivity [1, 4]: -2.308
- Log Infectivity [1, 16]: -2.31
- Log10 Infection Rel EF-C [1, 5]: -2.31
- Log10 Infection Rel EF-C [1, 6]: -2.308
- Log10 Infection Rel EF-C [1, 7]: -2.308
- TEM 2cat [2, 9]: 0
- Fibril ([2]; Fig S10 panel E): 0
- TEM 2cat [2, 18]: 0
- Fibril ([2]; FigS12 panel B, TEM): 0
- Fibril / Fibril Formation ([2]; TEM): 0
- Fibril [2, 10]: 0
- Fibril [2, 11]: 0
- Log10 Count Rate [3, 13]: 2.086
- Count Rate / kcps [3]: 122 kcps
- Log10 Count Rate [3, 14]: 2.086
- Log10 Count Rate [3, 15]: 2.086

Substance: CKFKQFF
- Rel-EFC [1]: 0,01
- Log10 Infection Rel EFC [1]: -2,17
- Log Infectivity [1, 4]: -2.171
- Log Infectivity [1, 16]: -2.17
- Log10 Infection Rel EF-C [1, 5]: -2.17
- Log10 Infection Rel EF-C [1, 6]: -2.171
- Log10 Infection Rel EF-C [1, 7]: -2.171
- Abs. Inf. ([1]; absolute infection signal, HIV-1 on TZM-bl cells): 260
- Log10 Inf. rel. to EF-C ([1]; log10 of HIV-1 infection of TZM-bl cells relative to EF-C (EF-C = 0)): -2.171
- Abs. Infection at 0.26 µM ([1]; peptide 0.26 µM, mean of n = 3, Figure 4A): 366.7
- Infect 1 0.26 µM ([1]; peptide 0.26 µM, replicate 1, absolute infection signal, Figure 4A): 260
- Infect 2 0.26 µM ([1]; peptide 0.26 µM, replicate 2, absolute infection signal, Figure 4A): 50
- Infect 3 0.26 µM ([1]; peptide 0.26 µM, replicate 3, absolute infection signal, Figure 4A): 790
- Abs. Infection at 1.3 µM ([1]; peptide 1.3 µM, mean of n = 3, Figure 4A): 260
- Infect 1 .3 µM ([1]; peptide 1.3 µM, replicate 1, absolute infection signal, Figure 4A): 440
- Infect 2 1.3µM ([1]; peptide 1.3 µM, replicate 2, absolute infection signal, Figure 4A): 160
- Infect 3 1.3 µM ([1]; peptide 1.3 µM, replicate 3, absolute infection signal, Figure 4A): 180
- TEM 2cat ([2]; Fig S10 panel D): 0
- Fibril ([2]; Fig S10 panel E): 0
- TEM 2cat [2, 18]: 0
- Fibril ([2]; FigS12 panel B, TEM): 0
- Fibril / Fibril Formation ([2]; TEM): 0
- Fibril [2, 10]: 0
- Fibril [2, 11]: 0
- Log10 Count Rate [3, 13]: 0.4094
- Count Rate / kcps [3]: 3 kcps
- Log10 Count Rate [3, 17]: 0.4099
- Log10 Count Rate [3, 15]: 0.4094
- Log10 Count Rate ([3]; turbidity, log10 of derived count rate of scattered light): 0.4094
